Values of other authors as cited in article PMC13343212, “Hybrid Aminoferrocenes With Nitrate Esters for In Situ Peroxynitrite Generation: Complex Interplay Between Redox Chemistry, NO‐Donor Reactivity, and Aminoferrocene Activation Influences In Vitro Anticancer Activity” (Chembiochem, 2026).

Conditions: references for RP‐TLC calibration

## c1ccc2cc3ccccc3cc2c1 [anthracene]
  LogP of known references: 4.50

## c1cc2cccc3c4cccc5cccc(c(c1)c23)c54 [perylene]
  LogP of known references: 6.25
